The source of these data is patent publication US11497752B2, “Compounds and uses thereof” (Foghorn Therapeutics Inc., priority 2018, dated 2022).

In general, IC50 refers to the concentration needed to halve the response being measured. High values mean a need for much substance, low ones inhibition by little substance.

For one test, the target named is BRM (Homo sapiens, UniProt P51531). Kind of test: ATPase catalytic activity of BRM (ADP-Glo in vitro biochemical assay). Particulars: for BRM Max % Inhibition: Table 5. Background: ADP-Glo first removes unused ATP, then detects ADP through luciferase.
Sequence of BRM (P51531 whole entry): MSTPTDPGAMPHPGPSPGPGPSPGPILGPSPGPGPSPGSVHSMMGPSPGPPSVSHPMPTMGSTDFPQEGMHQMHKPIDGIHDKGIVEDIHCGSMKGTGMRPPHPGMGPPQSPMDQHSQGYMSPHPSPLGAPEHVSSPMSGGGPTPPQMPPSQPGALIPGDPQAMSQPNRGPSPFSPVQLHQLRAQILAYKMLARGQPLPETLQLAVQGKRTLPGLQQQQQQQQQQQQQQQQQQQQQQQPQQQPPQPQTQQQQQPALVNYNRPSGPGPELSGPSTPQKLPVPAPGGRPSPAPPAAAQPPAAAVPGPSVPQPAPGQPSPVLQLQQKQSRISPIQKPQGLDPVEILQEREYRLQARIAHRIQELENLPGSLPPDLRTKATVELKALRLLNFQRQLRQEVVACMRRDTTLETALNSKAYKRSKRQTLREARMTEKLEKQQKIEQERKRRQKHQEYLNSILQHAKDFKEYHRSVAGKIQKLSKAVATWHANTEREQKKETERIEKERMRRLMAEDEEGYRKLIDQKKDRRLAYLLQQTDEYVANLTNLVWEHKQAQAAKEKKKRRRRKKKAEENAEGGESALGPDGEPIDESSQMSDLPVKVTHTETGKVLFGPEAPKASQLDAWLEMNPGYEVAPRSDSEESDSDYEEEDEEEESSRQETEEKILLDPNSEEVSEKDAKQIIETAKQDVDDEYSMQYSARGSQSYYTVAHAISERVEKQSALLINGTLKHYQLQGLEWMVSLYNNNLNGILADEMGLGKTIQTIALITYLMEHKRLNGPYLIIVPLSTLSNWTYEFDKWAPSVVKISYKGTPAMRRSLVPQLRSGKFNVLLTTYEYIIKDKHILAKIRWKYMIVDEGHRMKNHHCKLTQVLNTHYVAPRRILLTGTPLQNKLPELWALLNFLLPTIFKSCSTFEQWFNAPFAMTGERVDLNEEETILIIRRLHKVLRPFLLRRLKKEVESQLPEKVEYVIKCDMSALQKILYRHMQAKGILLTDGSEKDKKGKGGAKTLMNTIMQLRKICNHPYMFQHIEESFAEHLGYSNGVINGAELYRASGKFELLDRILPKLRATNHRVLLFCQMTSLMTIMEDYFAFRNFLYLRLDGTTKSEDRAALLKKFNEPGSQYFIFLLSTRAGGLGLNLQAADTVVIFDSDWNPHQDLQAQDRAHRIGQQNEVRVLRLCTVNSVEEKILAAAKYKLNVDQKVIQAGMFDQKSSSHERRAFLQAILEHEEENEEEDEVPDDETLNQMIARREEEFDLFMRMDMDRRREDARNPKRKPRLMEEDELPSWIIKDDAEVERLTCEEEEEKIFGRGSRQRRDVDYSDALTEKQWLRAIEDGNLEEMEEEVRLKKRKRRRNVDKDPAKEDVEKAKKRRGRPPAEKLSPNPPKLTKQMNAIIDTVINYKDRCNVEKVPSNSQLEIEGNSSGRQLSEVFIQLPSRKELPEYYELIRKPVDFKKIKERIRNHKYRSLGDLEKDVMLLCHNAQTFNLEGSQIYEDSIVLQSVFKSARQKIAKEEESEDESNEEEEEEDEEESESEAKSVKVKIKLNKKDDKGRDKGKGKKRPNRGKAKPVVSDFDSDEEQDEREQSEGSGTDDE
Another test concerns the target BRG-1 (Homo sapiens, UniProt P51532). Kind of test: ATPase catalytic activity of BRG-1 (ADP-Glo in vitro biochemical assay). Particulars: for BRG1 Max % Inhibition: Table 5.

Sequence of BRG-1 (P51532 whole entry): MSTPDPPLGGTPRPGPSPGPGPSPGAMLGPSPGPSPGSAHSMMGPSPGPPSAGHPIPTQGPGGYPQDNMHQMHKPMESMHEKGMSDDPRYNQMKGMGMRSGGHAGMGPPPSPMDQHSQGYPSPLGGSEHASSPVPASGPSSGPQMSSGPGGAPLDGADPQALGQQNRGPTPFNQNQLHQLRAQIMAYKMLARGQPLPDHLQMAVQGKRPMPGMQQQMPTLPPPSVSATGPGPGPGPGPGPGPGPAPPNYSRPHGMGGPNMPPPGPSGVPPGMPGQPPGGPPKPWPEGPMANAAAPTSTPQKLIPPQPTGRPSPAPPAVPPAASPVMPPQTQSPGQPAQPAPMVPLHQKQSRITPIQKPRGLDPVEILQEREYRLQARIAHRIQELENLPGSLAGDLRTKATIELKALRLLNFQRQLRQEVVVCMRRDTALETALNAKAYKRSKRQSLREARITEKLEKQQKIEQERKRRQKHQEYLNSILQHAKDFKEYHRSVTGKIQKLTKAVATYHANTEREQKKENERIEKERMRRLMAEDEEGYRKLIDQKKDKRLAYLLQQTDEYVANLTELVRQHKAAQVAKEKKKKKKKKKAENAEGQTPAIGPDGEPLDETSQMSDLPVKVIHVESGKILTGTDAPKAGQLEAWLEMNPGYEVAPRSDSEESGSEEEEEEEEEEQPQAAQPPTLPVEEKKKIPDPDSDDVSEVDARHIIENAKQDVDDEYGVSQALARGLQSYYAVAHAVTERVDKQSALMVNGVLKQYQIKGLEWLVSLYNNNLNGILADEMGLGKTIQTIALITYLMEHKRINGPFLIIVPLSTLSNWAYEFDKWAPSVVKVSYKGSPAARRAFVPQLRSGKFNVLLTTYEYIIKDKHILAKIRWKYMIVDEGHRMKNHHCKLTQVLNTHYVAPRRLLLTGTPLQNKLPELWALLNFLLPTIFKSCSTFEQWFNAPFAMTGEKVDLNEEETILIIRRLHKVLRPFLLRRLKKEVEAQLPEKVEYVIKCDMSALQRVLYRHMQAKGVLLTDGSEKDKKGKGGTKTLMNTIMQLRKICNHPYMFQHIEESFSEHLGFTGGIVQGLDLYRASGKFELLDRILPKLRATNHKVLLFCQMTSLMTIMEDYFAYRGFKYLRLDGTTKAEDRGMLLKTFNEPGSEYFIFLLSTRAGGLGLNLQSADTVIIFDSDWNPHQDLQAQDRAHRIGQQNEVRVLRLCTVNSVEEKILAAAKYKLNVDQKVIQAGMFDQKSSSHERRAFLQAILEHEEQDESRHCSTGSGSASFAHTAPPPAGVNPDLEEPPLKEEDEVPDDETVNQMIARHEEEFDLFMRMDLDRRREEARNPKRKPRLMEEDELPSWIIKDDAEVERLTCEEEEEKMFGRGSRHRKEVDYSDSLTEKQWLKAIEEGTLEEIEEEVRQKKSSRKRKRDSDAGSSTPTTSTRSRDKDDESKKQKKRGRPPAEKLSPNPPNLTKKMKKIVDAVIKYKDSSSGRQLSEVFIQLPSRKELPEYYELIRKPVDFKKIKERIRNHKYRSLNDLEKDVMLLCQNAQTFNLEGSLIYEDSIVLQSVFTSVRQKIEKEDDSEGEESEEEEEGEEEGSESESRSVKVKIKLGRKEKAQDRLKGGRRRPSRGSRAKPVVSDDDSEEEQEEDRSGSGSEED

Turning to `CN(C)S(=O)(=O)c1cccc(C(=O)NCC(=O)Nc2nc(-c3ccc(CN)cc3)cs2)c1` [Compound 22, N-[2-[[4-[4-(aminomethyl)phenyl]thiazol-2-yl]amino]-2-oxo-ethyl]-3-(dimethylsulfamoyl)benzamide], on BRM, the IC50 was greater than 10 µM and the “BRM Max % Inhibition” value was greater than 70%. At BRG-1, the IC50 was greater than 10 µM and the “BRG1 Max % Inhibition” value is reported as greater than 60%.
In the case of `CS(=O)(=O)c1cccc(C(=O)NCC(=O)Nc2nc(-c3ccccc3)cs2)c1` [Compound 23, 3-methylsulfonyl-N-[2-oxo-2-[(4-phenylthiazol-2-yl)amino]ethyl]benzamide], at BRM, the IC50 was in the range of 1 to 10 µM and the “BRM Max % Inhibition” value is given as greater than 70%. On BRG-1, the concentration for half-maximal inhibition (IC50) was in the range of 1 to 10 µM and the “BRG1 Max % Inhibition” value is greater than 50%.
On to `CSCC[C@H](NC(=O)c1cccc(S(=O)(=O)N(C)C)c1)C(=O)Nc1nc(-c2ccccc2)cs1` [Compound 24, (S)-3-(N,N-dimethylsulfamoyl)-N-(4-(methylthio)-1-oxo-1-((4-phenylthiazol-2-yl)amino)butan-2-yl)benzamide], for which, at BRM, the IC50 lay within 1 to 10 µM and the “BRM Max % Inhibition” value is on record as greater than 70%. The “BRG1 Max % Inhibition” value at BRG-1 was greater than 99%.
As for `CN(C)S(=O)(=O)c1cccc(C(=O)N[C@@H](CN)C(=O)Nc2nc(-c3ccccc3)cs2)c1` [Compound 25, (S)—N-(3-amino-1-oxo-1-((4-phenylthiazol-2-yl)amino)propan-2-yl)-3-(N,N-dimethylsulfamoyl)benzamide], at BRM, the IC50 was greater than 10 µM and the “BRM Max % Inhibition” value was greater than 70%. For the same molecule, at BRG-1, the IC50 is greater than 10 µM and the “BRG1 Max % Inhibition” value is given as greater than 50%.
As to `CNS(=O)(=O)c1cccc(C(=O)NCC(=O)Nc2nc(-c3ccccc3)cs2)c1` [Compound 26, 3-(methylsulfamoyl)-N-[2-oxo-2-[(4-phenylthiazol-2-yl)amino]ethyl]benzamide], on BRM, the IC50 was greater than 10 µM and the “BRM Max % Inhibition” value is recorded as greater than 60%. At BRG-1, the IC50 is greater than 10 µM and the “BRG1 Max % Inhibition” value is recorded as less than 30%.
In the case of `CN(C)S(=O)(=O)c1cccc(C(=O)NCC(=O)Nc2nc(-c3ccccc3C#N)cs2)c1` [Compound 27, N-(2-((4-(2-cyanophenyl)thiazol-2-yl)amino)-2-oxoethyl)-3-(N,N-dimethylsulfamoyl)benzamide], on BRM, the IC50 is greater than 10 µM and the “BRM Max % Inhibition” value is reported as greater than 60%. Moreover, at BRG-1, the IC50 was greater than 10 µM and the “BRG1 Max % Inhibition” value is reported as greater than 30%.
For the molecule `NS(=O)(=O)c1cccc(C(=O)NCC(=O)Nc2nc(-c3ccccc3)cs2)c1` [Compound 28, N-(2-oxo-2-((4-phenylthiazol-2-yl)amino)ethyl)-3-sulfamoylbenzamide], at BRM, the IC50 fell in the range of 1 to 10 µM and the “BRM Max % Inhibition” value was greater than 50%. In addition, on BRG-1, the IC50 lay in the range of 1 to 10 µM and the “BRG1 Max % Inhibition” value is reported as greater than 30%.
As to `Cc1cccc(C)c1-c1csc(NC(=O)CNC(=O)c2cccc(S(=O)(=O)N(C)C)c2)n1` [Compound 29, N-[2-[[4-(2,6-dimethylphenyl)thiazol-2-yl]amino]-2-oxo-ethyl]-3-(dimethylsulfamoyl)benzamide], on BRM, the IC50 was greater than 10 µM and the “BRM Max % Inhibition” value is greater than 50%. In addition, on BRG-1, the IC50 was greater than 10 µM and the “BRG1 Max % Inhibition” value was greater than 60%.
For `Cc1ccc(-c2csc(NC(=O)CNC(=O)c3cccc(S(=O)(=O)N(C)C)c3)n2)cc1` [Compound 31, 3-(dimethylsulfamoyl)-N-[2-oxo-2-[[4-(p-tolyl)thiazol-2-yl]amino]ethyl]benzamide], on BRM, the IC50 fell in the range of 1 to 10 µM and the “BRM Max % Inhibition” value is recorded as greater than 30%. Further, on BRG-1, the IC50 lay in the range of 1 to 10 µM and the “BRG1 Max % Inhibition” value was less than 30%.
As for `CN(C)S(=O)(=O)c1cccc(C(=O)NCC(=O)Nc2nc(-c3ccccn3)cs2)c1` [Compound 32, 3-(dimethylsulfamoyl)-N-[2-oxo-2-[[4-(2-pyridyl)thiazol-2-yl]amino]ethyl]benzamide], at BRM, the IC50 was greater than 10 µM and the “BRM Max % Inhibition” value is on record as greater than 30%. Besides, at BRG-1, the IC50 was greater than 10 µM and the “BRG1 Max % Inhibition” value is on record as less than 30%.
Take `CN(C)S(=O)(=O)c1cccc(C(=O)NCC(=O)Nc2nc(-c3cccc(C(=O)O)c3)cs2)c1` [Compound 33, 3-[2-[[2-[[3-(dimethylsulfamoyl)benzoyl]amino]acetyl]amino]thiazol-4-yl]benzoic acid]: on BRM, the IC50 is greater than 10 µM and the “BRM Max % Inhibition” value is listed as greater than 80%. Moreover, at BRG-1, the IC50 is greater than 10 µM and the “BRG1 Max % Inhibition” value was greater than 80%.
For the molecule `CN(C)S(=O)(=O)c1cccc(C(=O)NCC(=O)Nc2nc(C3CCCCC3)cs2)c1` [Compound 34, N-[2-[(4-cyclohexylthiazol-2-yl)amino]-2-oxo-ethyl]-3-(dimethylsulfamoyl)benzamide], on BRM, the IC50 was greater than 10 µM and the “BRM Max % Inhibition” value was greater than 90%. At BRG-1, the IC50 was greater than 10 µM and the “BRG1 Max % Inhibition” value is recorded as greater than 60%.
With `CC(C)c1csc(NC(=O)CNC(=O)c2cccc(S(=O)(=O)N(C)C)c2)n1` [Compound 35, 3-(dimethylsulfamoyl)-N-[2-[(4-isopropylthiazol-2-yl)amino]-2-oxoethyl]benzamide], at BRM, the IC50 was greater than 10 µM and the “BRM Max % Inhibition” value is given as greater than 95%. For the same molecule, at BRG-1, the IC50 is greater than 10 µM and the “BRG1 Max % Inhibition” value is given as greater than 90%.
Regarding `CS(=O)(=O)c1cccc(C(=O)NCC(=O)Nc2nc(-c3cccc(-c4ccccc4)c3)cs2)c1` [Compound 36, 3-methylsulfonyl-N-[2-oxo-2-[[4-(3-phenylphenyl)thiazol-2-yl]amino]ethyl]benzamide], on BRM, the IC50 was less than 1 µM and the “BRM Max % Inhibition” value was greater than 95%. Moreover, on BRG-1, the IC50 was in the range of 1 to 10 µM and the “BRG1 Max % Inhibition” value was greater than 90%.
Take `CN(C)C(=O)c1cccc(-c2csc(NC(=O)CNC(=O)c3cccc(S(=O)(=O)N(C)C)c3)n2)c1` [Compound 37, 3-[2-[[2-[[3-(dimethylsulfamoyl)benzoyl]amino]acetyl]amino]thiazol-4-yl]-N,N-dimethyl-benzamide]: at BRM, the IC50 was greater than 10 µM and the “BRM Max % Inhibition” value was greater than 50%. In addition, on BRG-1, the IC50 was greater than 10 µM and the “BRG1 Max % Inhibition” value is greater than 30%.
Consider `CSCC[C@H](NC(=O)c1ccc(NS(C)(=O)=O)cc1)C(=O)Nc1nc(-c2ccccc2)cs1` [Compound 38, 4-(methanesulfonamido)-N-[(1S)-3-methylsulfanyl-1-[(4-phenylthiazol-2-yl)carbamoyl]propyl]benzamide], for which, at BRM, the IC50 is greater than 10 µM and the “BRM Max % Inhibition” value is given as greater than 80%. Further, on BRG-1, the IC50 was greater than 10 µM and the “BRG1 Max % Inhibition” value was greater than 80%.
Turning to `O=C(CNC(=O)c1cccc(S(=O)(=O)C2CC2)c1)Nc1nc(-c2ccccc2)cs1` [Compound 39, 3-cyclopropylsulfonyl-N-[2-oxo-2-[(4-phenylthiazol-2-yl)amino]ethyl]benzamide], on BRM, the IC50 is greater than 10 µM and the “BRM Max % Inhibition” value is on record as greater than 30%. On BRG-1, the IC50 was greater than 10 µM and the “BRG1 Max % Inhibition” value is on record as less than 30%.
Consider `CN(C)S(=O)(=O)c1cccc(C(=O)NCC(=O)Nc2cccc(-c3ccccc3)c2)c1` [Compound 40, 3-(dimethylsulfamoyl)-N-[2-oxo-2-(3-phenylanilino)ethyl]benzamide], for which, at BRM, the “BRM Max % Inhibition” value is on record as greater than 50%. In addition, the “BRG1 Max % Inhibition” value on BRG-1 is listed as less than 30%.
Regarding `CC(C)CC[C@H](NC(=O)c1ccccc1)C(=O)Nc1nc(-c2ccccc2)cs1` [Compound 46, N-[(1S)-4-methyl-1-[(4-phenylthiazol-2-yl)carbamoyl]pentyl]benzamide], the IC50 against BRM and against BRG-1 was 1 to 10 µM in each case.
`O=C(N[C@@H](CCc1ccccc1)C(=O)Nc1nc(-c2ccccc2)cs1)c1ccccc1` [Compound 49, N-[(1S)-3-phenyl-1-[(4-phenylthiazol-2-yl)carbamoyl]propyl]benzamide]: the IC50 at BRM and against BRG-1 was 1 to 10 µM each time.
For the molecule `CCC[C@H](NC(=O)c1ccccc1)C(=O)Nc1nc(-c2ccccc2)cs1` [Compound 51, N-[(1S)-1-[(4-phenylthiazol-2-yl)carbamoyl]butyl]benzamide], the IC50 at BRM was 1 to 10 µM; against BRG-1, greater than 10 µM.
Take `CSCC[C@H](NC(=O)c1ccc(O)cc1)C(=O)Nc1nc(-c2ccccc2)cs1` [Compound 53, 4-hydroxy-N-[(1S)-3-methylsulfanyl-1-[(4-phenylthiazol-2-yl)carbamoyl]propyl]benzamide]: the IC50 against BRM and against BRG-1 was 1 to 10 µM each time.
`CSCC[C@H](NC(=O)c1cccc(C(C)(C)O)c1)C(=O)Nc1nc(-c2ccccc2)cs1` [Compound 55, (S)-3-(2-hydroxypropan-2-yl)-N-(4-(methylthio)-1-oxo-1-((4-phenylthiazol-2-yl)amino)butan-2-yl)benzamide]: at BRM, the IC50 was 1 to 10 µM and the “BRM Max % Inhibition” value is listed as greater than 90%. Also, at BRG-1, the IC50 was in the range of 1 to 10 µM and the “BRG1 Max % Inhibition” value is listed as greater than 80%.
In the case of `CSCC[C@H](NC(=O)c1ccc(CN)cc1)C(=O)Nc1nc(-c2ccccc2)cs1` [Compound 57, 4-(aminomethyl)-N-[3-methylsulfanyl-1-[(4-phenylthiazol-2-yl)carbamoyl]propyl]benzamide], at BRM, the IC50 is greater than 10 µM and the “BRM Max % Inhibition” value is recorded as greater than 90%. Besides, at BRG-1, the IC50 is greater than 10 µM and the “BRG1 Max % Inhibition” value is given as greater than 90%.
For `CSCC[C@H](NC(=O)c1cccc(O)c1)C(=O)Nc1nc(-c2ccccc2)cs1` [Compound 59, (S)-3-hydroxy-N-(4-(methylthio)-1-oxo-1-((4-phenylthiazol-2-yl)amino)butan-2-yl)benzamide], on BRM, the IC50 is greater than 10 µM and the “BRM Max % Inhibition” value is given as greater than 90%. Moreover, on BRG-1, the IC50 is greater than 10 µM and the “BRG1 Max % Inhibition” value is recorded as greater than 90%.
For `CSCC[C@H](NC(=O)c1ccc(CN(C)C)cc1)C(=O)Nc1nc(-c2ccccc2)cs1` [Compound 60, 4-[(dimethylamino)methyl]-N-[(1S)-3-methylsulfanyl-1-[(4-phenylthiazol-2-yl)carbamoyl]propyl]benzamide], at BRM, the IC50 is greater than 10 µM and the “BRM Max % Inhibition” value is listed as greater than 90%. For the same molecule, at BRG-1, the IC50 was greater than 10 µM and the “BRG1 Max % Inhibition” value is given as greater than 80%.
